For one assay, the system named is P. falciparum. Put plainly: In-vitro evaluation of anti-malarial activity (schizont maturation inhibition). Type of assay: cell-based, Plasmodium falciparum. The protocol:
Two strains of chloroquine sensitive strain and one strain of P. falciparum isolated from patients from Jagadalpur region of India and maintained in vitro. The cultures are maintained as per the standard culture procedures.
The parasites are growth in O +ve human RBCs with the addition of RPMI 1640 culture media with 10% Human serum as supplement. The cells are incubated at 37° C. at 5% CO2 atmosphere and the parasitemia is checked after 24 hrs and media changed. When parasitemia exceeded 10% parasitized cells the culture is subcultured with the addition of fresh RBC. The parasite growth is synchronized by the sorbitol lysis method and synchronized ring stage parasites are used for testing. The in-vitro testing is done in 100 μI complete media per well with the addition of 10 μI of erythrocytes with 2% of ring stages of parasites. All the tests are run in duplicates with in 96 well flat bottomed tissue culture plate and double dilutions are made for each of the test compound with individual control wells only with the RPMI 1640 and human serum supplement. The growth of the parasites in the presence of each of the test compound, chloroquine and control wells are monitored by the examination of the giemsa stained blood smears made after 24 hrs of incubation. The counting is done for the presence of mature schizsonts among 200 asexual parasites and the average schizont maturation inhibition is calculated by the formula (1−Nt/Nc)×100 where in Nt and Nc represent the number of schizont present in the test and control respectively. The IC 50 and IC 90 values are calculated by using the commercial statistical package Sigmastat.
As controls IC50 chloroquine and artether were also determined.

In another assay the test system is P. berghi. Put plainly: In-vivo anti-malarial activity. The arrangement: species or system Plasmodium berghi. To be noted: result in words.
The mark [1] stands for this setting: schizont maturation inhibition, synchronized ring stage parasites in human RBCs, 24 hrs incubation.

For orientation: IC50 means the concentration at which inhibition is half-maximal. A high value points to a need for much substance. Usually IC90 stands for the concentration needed for an effect of 90%.

Converted amounts (≈) assume the structure as drawn.

In the assay on P. falciparum (Plasmodium falciparum, 24 h), `CCN(CC)CCCC(C)Nc1ccnc2cc(Cl)ccc12` (stereo not drawn) [Chloroquine, reference compound] showed a concentration for half-maximal inhibition (IC50) of 12.9 µg/mL (≈ 40.2 µM) and an IC90 of 23.7 µg/mL (≈ 74.1 µM).
On to `CC1=CC(=O)CC2C1(C)CCC(CO)C2(C)CCC1=CCOC1=O` (stereo not drawn) [Gomphostenin, 3-[2-(2-Hydroxymethyl-1,4a,5-trimethyl-7-oxo-1,2,3,4,4a,7 8,8a-octahydronaphthalen-1-yl)-ethyl]-5H-furan-2-one], for which the “inhibitory activity against P. falciparum in-vitro” value in the assay with P. falciparum (in-vitro, result in words) is “significant inhibitory activity”. In the assay on P. falciparum (setting [1]), this compound came in with an IC50 of 8.23 µg/mL (≈ 24.8 µM) and an IC90 of 24.29 µg/mL (≈ 73.1 µM). Moreover, the “inhibitory activity against P. berghi in-vivo” value in the assay with P. berghi is given as “significant inhibitory activity”.

Values taken from US8188303B2, “Anti-malarial compound isolated from Gomphostema niveum” (The Director General, Defence Research and Development …, priority 2005, dated 2012).
